Assay results as given in patent US20200368249A1 (priority 2017, published 2020).
pIC50: −log10 of the molar value. Where “and” joins values, the source holds several entries; their conditions need not be identical. Identical values can stand only once.

What was measured:
[1] = system: Mtb-lux; type: cell-based, M. tuberculosis CDC1551
[2] = system: J774A.1 macrophage cell line; assay: cytotoxicity assay (resazurin); type: cell-based; conditions: J774 macrophages, 24 h
Protocol: Cytotoxicity was assessed on J774A.1 (ATCC® TIB67™) macrophage cell line. Macrophages were cultured in Dulbecco's Modified Eagle Medium (DMEM, GIBCO) supplemented with 10% heat inactivated fetal calf serum (Atlanta Biologicals), 1 mM sodium pyruvate (CellGro), 2 mM L-glutamine (CORNING) and 1% PenStrep (100 U/mL Penicillin, […] Streptomycin, GIBCO). Macrophages were seeded in a 384-well black transparent bottom plate (Corning) at 2.5×10^4 cells/well. After macrophages were allowed to adhere for 4-6 h, a two-fold dilution series of the compounds (200-0.006 μM) and controls (2% Triton X and 0.5% DMSO) were added to the wells. The plate was incubated for 24 h and then 1/10th volume of resazurin dye was added. Fluorescence was measured following 4 h incubation with the dye at an excitation of 560 nm and emission at 590 nm with cell viability indicated by conversion of resazurin to fluorescent product resofurin. Viability is determined as percent growth calculated relative to the DMSO control.

[3] = system: Mab 390S-lux; type: cell-based, M. abscessus 390S
[4] = biological target: M. tuberculosis gyrase (Mycobacterium tuberculosis, UniProt P9WG45+P9WG47)
Chain of M. tuberculosis gyrase (P9WG45 whole entry, looked up): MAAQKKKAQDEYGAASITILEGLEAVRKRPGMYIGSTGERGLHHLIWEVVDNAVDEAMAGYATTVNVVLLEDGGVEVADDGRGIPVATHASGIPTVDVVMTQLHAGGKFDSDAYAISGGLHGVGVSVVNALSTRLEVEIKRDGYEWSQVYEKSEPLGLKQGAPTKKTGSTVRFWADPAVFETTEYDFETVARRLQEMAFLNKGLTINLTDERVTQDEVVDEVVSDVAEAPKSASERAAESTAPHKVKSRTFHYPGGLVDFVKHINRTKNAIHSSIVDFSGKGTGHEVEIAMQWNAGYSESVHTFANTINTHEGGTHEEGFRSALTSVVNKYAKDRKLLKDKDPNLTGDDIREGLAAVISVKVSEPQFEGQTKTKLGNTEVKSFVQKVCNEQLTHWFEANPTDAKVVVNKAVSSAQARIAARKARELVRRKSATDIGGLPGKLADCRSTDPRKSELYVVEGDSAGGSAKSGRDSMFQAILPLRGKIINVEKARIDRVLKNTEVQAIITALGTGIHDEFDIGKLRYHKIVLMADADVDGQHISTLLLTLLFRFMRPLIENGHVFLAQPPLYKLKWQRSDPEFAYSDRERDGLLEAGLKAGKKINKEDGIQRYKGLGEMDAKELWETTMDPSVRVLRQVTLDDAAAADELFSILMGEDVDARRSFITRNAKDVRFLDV
Chain of M. tuberculosis gyrase (P9WG47 whole entry, looked up): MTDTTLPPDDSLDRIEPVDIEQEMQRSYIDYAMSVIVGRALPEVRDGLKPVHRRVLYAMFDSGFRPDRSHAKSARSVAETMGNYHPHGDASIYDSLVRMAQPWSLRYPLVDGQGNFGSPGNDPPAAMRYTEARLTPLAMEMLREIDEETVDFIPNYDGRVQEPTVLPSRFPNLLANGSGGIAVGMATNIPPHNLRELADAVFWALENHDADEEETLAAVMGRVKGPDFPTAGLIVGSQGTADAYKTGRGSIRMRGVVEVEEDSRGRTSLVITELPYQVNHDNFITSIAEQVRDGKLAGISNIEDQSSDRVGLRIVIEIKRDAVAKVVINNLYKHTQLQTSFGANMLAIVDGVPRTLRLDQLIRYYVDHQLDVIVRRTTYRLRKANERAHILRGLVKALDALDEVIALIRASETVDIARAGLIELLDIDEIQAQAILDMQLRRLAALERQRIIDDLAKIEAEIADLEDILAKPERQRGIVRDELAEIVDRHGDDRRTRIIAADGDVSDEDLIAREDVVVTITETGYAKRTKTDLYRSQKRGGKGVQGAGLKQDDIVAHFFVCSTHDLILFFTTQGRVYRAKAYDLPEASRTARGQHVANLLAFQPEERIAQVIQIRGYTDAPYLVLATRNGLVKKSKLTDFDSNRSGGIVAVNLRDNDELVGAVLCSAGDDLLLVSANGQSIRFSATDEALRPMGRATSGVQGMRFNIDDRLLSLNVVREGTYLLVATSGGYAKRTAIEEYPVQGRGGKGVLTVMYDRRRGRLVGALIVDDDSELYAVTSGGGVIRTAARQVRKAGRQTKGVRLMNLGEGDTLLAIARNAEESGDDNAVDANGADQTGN
Protocol: (§1) In FIG. 8A-FIG. 8D, the IC50 was determined as the drug concentration which inhibited 50% of the supercoiling activity.

[5] = biological target: E. coli gyrase (Escherichia coli, UniProt P0AES4+P0AES6)
Chain of E. coli gyrase (P0AES4 whole entry, one chain of several): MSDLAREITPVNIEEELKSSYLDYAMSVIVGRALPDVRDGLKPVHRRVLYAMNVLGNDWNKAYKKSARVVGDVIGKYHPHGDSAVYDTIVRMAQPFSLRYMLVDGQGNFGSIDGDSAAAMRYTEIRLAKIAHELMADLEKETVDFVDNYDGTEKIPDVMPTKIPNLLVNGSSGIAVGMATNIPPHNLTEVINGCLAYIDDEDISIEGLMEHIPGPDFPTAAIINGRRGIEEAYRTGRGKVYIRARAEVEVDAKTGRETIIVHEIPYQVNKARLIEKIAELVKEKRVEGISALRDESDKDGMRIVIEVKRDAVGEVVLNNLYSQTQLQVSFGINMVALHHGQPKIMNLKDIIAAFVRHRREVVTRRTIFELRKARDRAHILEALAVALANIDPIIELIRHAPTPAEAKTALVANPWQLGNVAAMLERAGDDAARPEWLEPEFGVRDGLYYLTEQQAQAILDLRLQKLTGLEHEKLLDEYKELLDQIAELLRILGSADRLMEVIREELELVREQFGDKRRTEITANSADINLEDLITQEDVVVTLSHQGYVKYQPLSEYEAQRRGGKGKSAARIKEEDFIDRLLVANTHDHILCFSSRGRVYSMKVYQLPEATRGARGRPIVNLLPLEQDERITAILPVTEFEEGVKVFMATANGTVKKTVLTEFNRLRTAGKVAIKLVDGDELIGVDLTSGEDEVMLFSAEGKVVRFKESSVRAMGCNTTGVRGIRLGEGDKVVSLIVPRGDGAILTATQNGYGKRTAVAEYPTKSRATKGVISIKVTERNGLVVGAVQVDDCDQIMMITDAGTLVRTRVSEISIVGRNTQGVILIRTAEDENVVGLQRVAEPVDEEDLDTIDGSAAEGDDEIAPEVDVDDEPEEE
Protocol: as §1

[6] = biological target: MtbTopo1 (Mycobacterium tuberculosis, UniProt P9WG49); assay: topoisomerase 1A relaxation assay, MtbTopo1; type: biochemical, M. tuberculosis
Chain of MtbTopo1 (P9WG49 whole entry, looked up): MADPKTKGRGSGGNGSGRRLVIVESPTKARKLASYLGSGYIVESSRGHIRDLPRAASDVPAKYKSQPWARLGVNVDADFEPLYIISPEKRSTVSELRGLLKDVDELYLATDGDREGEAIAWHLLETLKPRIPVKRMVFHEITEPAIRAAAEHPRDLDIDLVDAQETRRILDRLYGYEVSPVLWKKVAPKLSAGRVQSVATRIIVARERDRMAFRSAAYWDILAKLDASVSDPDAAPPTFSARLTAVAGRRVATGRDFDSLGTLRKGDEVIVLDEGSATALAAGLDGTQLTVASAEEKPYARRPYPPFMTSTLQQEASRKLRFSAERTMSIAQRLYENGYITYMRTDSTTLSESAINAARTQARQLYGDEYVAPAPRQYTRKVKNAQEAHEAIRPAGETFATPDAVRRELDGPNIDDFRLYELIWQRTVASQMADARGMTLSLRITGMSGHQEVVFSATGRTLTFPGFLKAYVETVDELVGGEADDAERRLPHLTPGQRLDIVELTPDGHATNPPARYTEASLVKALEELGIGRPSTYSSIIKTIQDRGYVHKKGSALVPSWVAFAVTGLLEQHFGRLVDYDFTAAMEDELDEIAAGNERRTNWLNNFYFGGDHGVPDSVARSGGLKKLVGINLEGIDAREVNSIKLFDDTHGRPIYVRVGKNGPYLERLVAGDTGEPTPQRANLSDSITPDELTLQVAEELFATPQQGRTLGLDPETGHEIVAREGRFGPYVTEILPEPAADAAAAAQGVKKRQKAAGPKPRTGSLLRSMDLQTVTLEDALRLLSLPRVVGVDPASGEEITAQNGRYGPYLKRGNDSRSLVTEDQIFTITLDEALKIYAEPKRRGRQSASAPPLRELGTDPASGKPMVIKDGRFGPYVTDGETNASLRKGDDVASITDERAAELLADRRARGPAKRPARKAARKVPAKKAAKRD
Excerpt: (§2) In FIGS. 7A and 7B, R indicates relaxed circular DNA; PR indicates partially relaxed DNA; and SC indicates supercoiled DNA.

[7] = system: Mtb CDC1551; assay: time-kill kinetic assay, Mtb; type: cell-based, M. tuberculosis; conditions: for mode of action against Mtb: actively replicating Mtb
Protocol: To examine whether bacterial killing is concentration and/or time-dependent, a time-kill kinetic study was carried out with 8, 10, 11, 14, and 15. For Mtb, CDC1551 cultures diluted to an OD of 0.01 in 7H9 were added to a solid-white 384-well plate containing compounds at final concentrations of 0, 1×, 4× and 8× MIC in a total volume of 30 μl. DMSO control was also included. The plate was incubated for 6 days for Mtb. At every time point-0, 24, 48 and 72 h post-inoculation, an aliquot was taken, serially diluted and 50 μl plated onto 7H10 quad-plates supplemented with OADC. Colonies were counted after 3-4 weeks of incubation at 37° C. and CFU/ml was calculated. […] The plate was incubated for 3 days and colonies were counted after 5 days of incubation following plating. A 1-2 log10 decrease in CFU/ml is considered bactericidal. Luminescence was also read at every time point before taking an aliquot for serial dilution.

[8] = reductive demetallation by glutathione; type: physicochemical
[9] = biological target: EcTopo1 (Escherichia coli, UniProt P06612)
Chain of EcTopo1 (P06612 whole entry): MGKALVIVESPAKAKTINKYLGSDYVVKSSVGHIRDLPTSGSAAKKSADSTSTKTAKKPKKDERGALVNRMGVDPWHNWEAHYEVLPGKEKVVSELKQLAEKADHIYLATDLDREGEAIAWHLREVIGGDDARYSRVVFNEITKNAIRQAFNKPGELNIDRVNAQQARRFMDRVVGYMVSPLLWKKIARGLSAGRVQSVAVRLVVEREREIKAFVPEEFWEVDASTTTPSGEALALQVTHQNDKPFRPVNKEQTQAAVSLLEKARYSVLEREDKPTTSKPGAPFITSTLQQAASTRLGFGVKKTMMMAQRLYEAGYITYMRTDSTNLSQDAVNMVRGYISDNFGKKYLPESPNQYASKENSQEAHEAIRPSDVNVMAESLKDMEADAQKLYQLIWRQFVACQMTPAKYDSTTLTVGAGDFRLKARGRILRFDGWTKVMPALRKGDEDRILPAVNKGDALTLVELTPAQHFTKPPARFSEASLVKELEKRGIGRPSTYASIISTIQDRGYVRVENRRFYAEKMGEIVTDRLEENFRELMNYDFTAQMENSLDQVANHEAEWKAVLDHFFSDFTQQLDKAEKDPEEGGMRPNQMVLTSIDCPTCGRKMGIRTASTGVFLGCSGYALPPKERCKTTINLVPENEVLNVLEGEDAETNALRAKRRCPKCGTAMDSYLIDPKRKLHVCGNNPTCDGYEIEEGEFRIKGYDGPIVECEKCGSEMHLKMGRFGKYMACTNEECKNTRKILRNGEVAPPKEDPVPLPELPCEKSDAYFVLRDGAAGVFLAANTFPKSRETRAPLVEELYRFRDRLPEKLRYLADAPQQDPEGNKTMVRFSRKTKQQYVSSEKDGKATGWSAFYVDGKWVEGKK
Excerpt: as §2

[10] = tolerability of mice; type: in vivo; conditions: 400 mg/kg, preliminary work
[11] = system: Mab; conditions: even at 32 and 64-fold MIC; cited from earlier work
[12] = system: Mtb; conditions: cited from earlier work

C1=NCCCN=Cc2ccc3[n]2[Au+][n]2c1ccc2-c1nc2ccccc2nc1-3.F[P-](F)(F)(F)(F)F [Compound 8]
MIC Mtb [1]: 2.72 µM
pIC50 [2]: 4.31
MIC Mab [3]: 849.41 µM

C1=NCCCCN=Cc2ccc3[n]2[Au+][n]2c1ccc2-c1nc2ccccc2nc1-3.F[P-](F)(F)(F)(F)F [Compound 10]
MIC Mtb [1]: 0.12 µM
activity against topoisomerase II (M. tuberculosis gyrase supercoiling) [4]: neither had significant activity
pIC50 [2]: 4.07
activity against topoisomerase II (E. coli gyrase supercoiling) [5]: neither had significant activity
inhibition of topoisomerase I (MtbTopo1 relaxation) [6]: able to inhibit topoisomerase I
mode of action against Mtb [7]: almost completely bacteriostatic
decrease relative to vehicle control ([7]; at 64-fold MIC): 1 log
MIC Mab [3]: 5.4 µM and 5.44 µM
loss of the Au(III) ion [8]: cannot be lost since it is very tightly bound
inhibition of topoisomerase I (EcTopo1 relaxation) [9]: able to inhibit topoisomerase I
tolerability [10]: tolerated

ClC1CN=Cc2ccc3[n]2[Au+][n]2c(ccc2-c2nc4ccccc4nc2-3)C=NC1.F[P-](F)(F)(F)(F)F (centres unmarked) [Compound 11]
MIC Mtb [1]: 4.06 µM
pIC50 [2]: 3.96
decrease in CFU/mL, early time-point ([7]; 24 h): > 1 log
mode of action, latest time-point ([7]; 144 h, at 8, 4 and 2-fold MIC): bacteriostatic
MIC Mab [3]: 91.72 µM

CCOC1CN=Cc2ccc[n]2[Au+][n]2cccc2C=NC1.F[P-](F)(F)(F)(F)F (centres unmarked) [Compound 15]
MIC Mtb [1]: 4.61 µM
pIC50 [2]: 4.31
mode of action against Mtb [7]: rapid and potent bactericidal activity
MIC Mab [3]: 13.05 µM

NCC[C@H](O)C(=O)N[C@@H]1C[C@H](N)[C@@H](O[C@H]2O[C@H](CN)[C@@H](O)[C@H](O)[C@H]2O)[C@H](O)[C@H]1O[C@H]1O[C@H](CO)[C@@H](O)[C@H](N)[C@H]1O [amikacin]
bactericidal activity against Mab in vitro [11]: poor bactericidal activity

CC(=O)OC[C@H]1O[C@@H]([S-])[C@H](OC(C)=O)[C@@H](OC(C)=O)[C@@H]1OC(C)=O.CCP(CC)CC.[Au+] [auranofin]
activity against Mtb [12]: bactericidal

CC[C@H]1OC(=O)[C@H](C)[C@@H](O[C@H]2C[C@@](C)(OC)[C@@H](O)[C@H](C)O2)[C@H](C)[C@@H](O[C@@H]2O[C@H](C)C[C@H](N(C)C)[C@H]2O)[C@](C)(OC)C[C@@H](C)C(=O)[C@H](C)[C@@H](O)[C@]1(C)O [clarithromycin]
bactericidal activity against Mab in vitro [11]: poor bactericidal activity
